Results taken from patent publication US20250011368A1, “DLL3 TARGETING PEPTIDES AND CONSTRUCTS THEREOF” (MARIANA ONCOLOGY INC., priority 2023, published 2025).
Bridge positions count the residues as written; N and C are the ends. Square brackets hold non-standard residues; d marks the D form. Side chains are listed from the residue outwards. Peptide text beside a SMILES is read from it. * marks the point of attachment. ξ: configuration not given here. DOTA = O=C(O)CN1CCN(CC(=O)O)CCN(CC(=O)*)CCN(CC(=O)O)CC1; Trp(5-F) = N[C@@H](Cc1c[nH]c2ccc(F)cc12)C(=O)O; Trp(7-aza) = N[C@@H](Cc1c[nH]c2ncccc12)C(=O)O; Pro(trans-4-F) = O=C(O)[C@@H]1C[C@@H](F)CN1; 2Nal = N[C@@H](Cc1ccc2ccccc2c1)C(=O)O; ξW = NC(Cc1c[nH]c2ccccc12)C(=O)O; Thr(3ξ) = CC(O)[C@H](N)C(=O)O; Cba = N[C@@H](CC1CCC1)C(=O)O; Chg = N[C@H](C(=O)O)C1CCCCC1; PEG4 = NCCOCCOCCOCCOCCC(=O)O

Target: T1, human DLL3 (Homo sapiens, UniProt Q9NYJ7)
T1 sequence (Q9NYJ7 27-618): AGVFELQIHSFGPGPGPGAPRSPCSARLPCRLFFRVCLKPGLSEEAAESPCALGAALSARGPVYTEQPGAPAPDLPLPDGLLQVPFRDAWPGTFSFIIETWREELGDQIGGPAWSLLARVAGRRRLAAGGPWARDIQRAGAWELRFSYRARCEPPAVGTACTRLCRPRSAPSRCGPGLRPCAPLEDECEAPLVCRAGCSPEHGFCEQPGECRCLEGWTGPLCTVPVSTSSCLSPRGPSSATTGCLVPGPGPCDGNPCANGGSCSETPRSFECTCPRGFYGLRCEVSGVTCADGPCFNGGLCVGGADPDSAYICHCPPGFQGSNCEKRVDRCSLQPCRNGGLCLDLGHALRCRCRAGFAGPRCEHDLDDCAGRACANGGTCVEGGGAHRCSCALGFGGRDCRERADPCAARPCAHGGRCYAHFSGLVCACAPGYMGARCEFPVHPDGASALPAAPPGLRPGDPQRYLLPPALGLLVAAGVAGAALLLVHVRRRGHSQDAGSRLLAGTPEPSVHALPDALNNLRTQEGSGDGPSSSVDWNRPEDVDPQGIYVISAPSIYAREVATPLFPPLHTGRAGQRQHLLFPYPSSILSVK
Test: Affinity determination by Surface Plasmon Resonance (SPR)
Type: binding
Conditions: 25° C., biotinylated human DLL3 immobilized on streptavidin sensor chip, 1:1 binding model; read-out: SPR KD
How it was run: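 Biotinylated human DLL3 was captured on a streptavidin chip with a reference surface. Compounds at several concentrations were injected at 100 μL/minute in phosphate buffer (137 mM NaCl, 2.7 mM KCl, 0.05% P20, 2% DMSO). Affinity and kinetics came from 1:1 model fits of the sensorgrams.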

Row | Kd | Compound
1 | < 1 nM | CC(=O)N[C@@H](Cc1c[nH]c2ccc(F)cc12)C(=O)N[C@H](C(=O)N[C@H](C(=O)N[C@H]1CSSC[C@@H](C(=O)N[C@@H](Cc2c[nH]c3ncccc23)C(=O)N2C[C@H](F)C[C@H]2C(=O)N[C@H](CCCCNC(=O)CN2CCN(CC(=O)O)CCN(CC(=O)O)CCN(CC(=O)O)CC2)C(N)=O)NC(=O)[C@H](CC(=O)O)NC(=O)[C@H](Cc2cnc[nH]2)NC(=O)[C@H](Cc2ccc3ccccc3c2)NC(=O)[C@H](CC(N)=O)NC(=O)[C@H](CC(N)=O)NC1=O)C1CCCCC1)[C@@H](C)O [compound 258, Ac-(5Fluoro-W)-T-(Chg)-C(3)-N-N-(2Nal)-H-D-C(3)-(7Aza-W)-(trans4Fluoro-P)-[D-Lys(DOTA)]-NH2] (Ac-[Trp(5-F)]T[Chg]CNN[2Nal]HDC[Trp(7-aza)][Pro(trans-4-F)][dK](DOTA)-NH2; disulfide 4-10)
2 | < 1 nM | CC[C@H](C)[C@H](NC(=O)[C@@H](NC(=O)[C@H](Cc1c[nH]c2ccccc12)NC(C)=O)[C@@H](C)O)C(=O)N[C@H]1CSSC[C@@H](C(=O)N[C@@H](Cc2c[nH]c3ccccc23)C(=O)N2CCC[C@H]2C(=O)N[C@H](CCCCNC(=O)CN2CCN(CC(=O)O)CCN(CC(=O)O)CCN(CC(=O)O)CC2)C(=O)O)NC(=O)[C@H](CC(=O)O)NC(=O)[C@H](Cc2cnc[nH]2)NC(=O)[C@H](Cc2ccc3ccccc3c2)NC(=O)[C@H](CC(N)=O)NC(=O)[C@H](CC(N)=O)NC1=O [compound 262, Ac-W-T-I-C(3)-N-N-(2Nal)-H-D-C(3)-W-P-[D-Lys(DOTA)]-OH] (Ac-WTICNN[2Nal]HDCWP[dK](DOTA)-OH; disulfide 4-10)
3 | < 1 nM | CC(=O)N[C@@H](Cc1c[nH]c2ccc(F)cc12)C(=O)N[C@H](C(=O)N[C@@H](CC1CCC1)C(=O)N[C@H]1CSSC[C@@H](C(=O)N[C@@H](Cc2c[nH]c3ncccc23)C(=O)N2C[C@H](F)C[C@H]2C(=O)N[C@@H](CCCCNC(=O)CN2CCN(CC(=O)O)CCN(CC(=O)O)CCN(CC(=O)O)CC2)C(N)=O)NC(=O)[C@H](CC(=O)O)NC(=O)[C@H](Cc2cnc[nH]2)NC(=O)[C@H](Cc2ccc3ccccc3c2)NC(=O)[C@H](CC(N)=O)NC(=O)[C@H](CC(N)=O)NC1=O)[C@@H](C)O [compound 269, Ac-(5Fluoro-W)-T-(CBA)-C(3)-N-N-(2Nal)-H-D-C(3)-(7Aza-W)-(trans4Fluoro-P)-[D-Lys(DOTA)]-NH2] (Ac-[Trp(5-F)]T[Cba]CNN[2Nal]HDC[Trp(7-aza)][Pro(trans-4-F)]K(DOTA)-NH2; disulfide 4-10)
4 | < 1 nM | CC[C@H](C)[C@H](NC(=O)[C@@H](NC(=O)C(Cc1c[nH]c2ccccc12)NC(C)=O)C(C)O)C(=O)N[C@H]1CSSC[C@@H](C(=O)N[C@@H](Cc2c[nH]c3ccccc23)C(=O)N2CCC[C@H]2C(=O)NCCOCCOCCOCCOCCC(=O)N[C@H](CCCCNC(=O)CN2CCN(CC(=O)O)CCN(CC(=O)O)CCN(CC(=O)O)CC2)C(N)=O)NC(=O)[C@H](CC(=O)O)NC(=O)[C@H](Cc2cnc[nH]2)NC(=O)[C@H](Cc2ccc3ccccc3c2)NC(=O)[C@H](CC(N)=O)NC(=O)[C@H](CC(N)=O)NC1=O (stereo partly drawn) [compound 270, Ac-W-T-I-C(3)-N-N-(2Nal)-H-D-C(3)-W-P-PEG4-[D-Lys(DOTA)]-NH2] (Ac-[ξW][Thr(3ξ)]ICNN[2Nal]HDCWP[PEG4][dK](DOTA)-NH2; disulfide 4-10)
5 | < 1 nM | CC[C@H](C)[C@H](NC(=O)[C@@H](NC(=O)C(Cc1c[nH]c2ccccc12)NC(C)=O)C(C)O)C(=O)N[C@H]1CSSC[C@@H](C(=O)N[C@@H](Cc2c[nH]c3ccccc23)C(=O)N2CCC[C@H]2C(=O)N[C@H](CCCCNC(=O)CCOCCOCCOCCOCCNC(=O)CN2CCN(CC(=O)O)CCN(CC(=O)O)CCN(CC(=O)O)CC2)C(N)=O)NC(=O)[C@H](CC(=O)O)NC(=O)[C@H](Cc2cnc[nH]2)NC(=O)[C@H](Cc2ccc3ccccc3c2)NC(=O)[C@H](CC(N)=O)NC(=O)[C@H](CC(N)=O)NC1=O (stereo partly drawn) [compound 271, Ac-W-T-I-C(3)-N-N-(2Nal)-H-D-C(3)-W-P-[D-Lys(PEG4-DOTA)]-NH2] (Ac-[ξW][Thr(3ξ)]ICNN[2Nal]HDCWP[dK]([PEG4-DOTA])-NH2; disulfide 4-10)
6 | 1 to 10 nM | CC[C@H](C)[C@H](NC(=O)[C@@H](NC(=O)[C@H](Cc1c[nH]c2ccccc12)NC(C)=O)[C@@H](C)O)C(=O)N[C@H]1CSSC[C@@H](C(=O)N[C@@H](Cc2c[nH]c3ccccc23)C(=O)N2CCC[C@H]2C(=O)N[C@H](CCCCNC(=O)CN2CCN(CC(=O)O)CCN(CC(=O)O)CCN(CC(=O)O)CC2)C(N)=O)NC(=O)[C@H](CC(=O)O)NC(=O)[C@H](CCC(=O)O)NC(=O)[C@H](Cc2c[nH]c3ccccc23)NC(=O)[C@H](CC(N)=O)NC(=O)[C@H](CCC(=O)O)NC1=O [compound 273, Ac-W-T-I-C(3)-Glu-N-W-Glu-D-C(3)-W-P-[D-Lys(DOTA)]-NH2] (Ac-WTICENWEDCWP[dK](DOTA)-NH2; disulfide 4-10)
7 | 1 to 10 nM | CC[C@H](C)[C@H](NC(=O)[C@@H](NC(=O)[C@H](Cc1c[nH]c2ccccc12)NC(C)=O)[C@@H](C)O)C(=O)N[C@H]1CSSC[C@@H](C(=O)N[C@@H](Cc2c[nH]c3ccccc23)C(=O)N2CCC[C@H]2C(=O)N[C@H](CCCCNC(=O)CN2CCN(CC(=O)O)CCN(CC(=O)O)CCN(CC(=O)O)CC2)C(N)=O)NC(=O)[C@H](CC(=O)O)NC(=O)[C@H](CCC(=O)O)NC(=O)[C@H](Cc2c[nH]c3ccccc23)NC(=O)[C@H](CC(N)=O)NC(=O)[C@H](CC(N)=O)NC1=O [compound 274, Ac-W-T-I-C(3)-N-N-W-Glu-D-C(3)-W-P-[D-Lys(DOTA)]-NH2] (Ac-WTICNNWEDCWP[dK](DOTA)-NH2; disulfide 4-10)
8 | 1 to 10 nM | CC[C@H](C)[C@H](NC(=O)[C@@H](NC(=O)[C@H](Cc1c[nH]c2ccccc12)NC(C)=O)[C@@H](C)O)C(=O)N[C@H]1CSSC[C@@H](C(=O)N[C@@H](Cc2c[nH]c3ccccc23)C(=O)N2CCC[C@H]2C(=O)N[C@H](CCCCNC(=O)CN2CCN(CC(=O)O)CCN(CC(=O)O)CCN(CC(=O)O)CC2)C(N)=O)NC(=O)[C@H](CC(=O)O)NC(=O)[C@H](CCC(=O)O)NC(=O)[C@H](Cc2c[nH]c3ccccc23)NC(=O)[C@H](CCC(=O)O)NC(=O)[C@H](CCC(=O)O)NC1=O [compound 275, Ac-W-T-I-C(3)-Glu-Glu-W-Glu-D-C(3)-W-P-[D-Lys(DOTA)]-NH2] (Ac-WTICEEWEDCWP[dK](DOTA)-NH2; disulfide 4-10)
9 | 10 to 100 nM | CC[C@H](C)[C@H](NC(=O)[C@@H](NC(=O)[C@H](Cc1c[nH]c2ccccc12)NC(C)=O)[C@@H](C)O)C(=O)N[C@H]1CSSC[C@@H](C(=O)N[C@@H](Cc2c[nH]c3ccccc23)C(=O)N2CCC[C@H]2C(=O)N[C@H](CCCCNC(=O)CN2CCN(CC(=O)O)CCN(CC(=O)O)CCN(CC(=O)O)CC2)C(N)=O)NC(=O)[C@H](CC(=O)O)NC(=O)[C@H](CCC(=O)O)NC(=O)[C@H](Cc2c[nH]c3ccccc23)NC(=O)[C@H](CCC(=O)O)NC(=O)[C@H](CC(N)=O)NC1=O [compound 276, Ac-W-T-I-C(3)-N-Glu-W-Glu-D-C(3)-W-P-[D-Lys(DOTA)]-NH2] (Ac-WTICNEWEDCWP[dK](DOTA)-NH2; disulfide 4-10)
10 | < 1 nM | CC[C@H](C)[C@H](NC(=O)[C@@H](NC(=O)[C@H](Cc1c[nH]c2ccccc12)NC(C)=O)[C@@H](C)O)C(=O)N[C@H]1CSSC[C@@H](C(=O)N[C@@H](Cc2c[nH]c3ccccc23)C(=O)N2CCC[C@H]2C(=O)N[C@H](CCCCNC(=O)CN2CCN(CC(=O)O)CCN(CC(=O)O)CCN(CC(=O)O)CC2)C(N)=O)NC(=O)[C@H](CC(=O)O)NC(=O)[C@H](Cc2cnc[nH]2)NC(=O)[C@H](Cc2c[nH]c3ccccc23)NC(=O)[C@H](CC(N)=O)NC(=O)[C@H](CCC(=O)O)NC1=O [compound 277, Ac-W-T-I-C(3)-Glu-N-W-H-D-C(3)-W-P-[D-Lys(DOTA)]-NH2] (Ac-WTICENWHDCWP[dK](DOTA)-NH2; disulfide 4-10)
11 | 1 to 10 nM | CC[C@H](C)[C@H](NC(=O)[C@@H](NC(=O)[C@H](Cc1c[nH]c2ccccc12)NC(C)=O)[C@@H](C)O)C(=O)N[C@H]1CSSC[C@@H](C(=O)N[C@@H](Cc2c[nH]c3ccccc23)C(=O)N2CCC[C@H]2C(=O)N[C@H](CCCCNC(=O)CN2CCN(CC(=O)O)CCN(CC(=O)O)CCN(CC(=O)O)CC2)C(N)=O)NC(=O)[C@H](CC(=O)O)NC(=O)[C@H](Cc2cnc[nH]2)NC(=O)[C@H](Cc2c[nH]c3ccccc23)NC(=O)[C@H](CCC(=O)O)NC(=O)[C@H](CCC(=O)O)NC1=O [compound 278, Ac-W-T-I-C(3)-Glu-Glu-W-H-D-C(3)-W-P-[D-Lys(DOTA)]-NH2] (Ac-WTICEEWHDCWP[dK](DOTA)-NH2; disulfide 4-10)
12 | 1 to 10 nM | CC[C@H](C)[C@H](NC(=O)[C@@H](NC(=O)[C@H](Cc1c[nH]c2ccccc12)NC(C)=O)[C@@H](C)O)C(=O)N[C@H]1CSSC[C@@H](C(=O)N[C@@H](Cc2c[nH]c3ccccc23)C(=O)N2CCC[C@H]2C(=O)N[C@H](CCCCNC(=O)CN2CCN(CC(=O)O)CCN(CC(=O)O)CCN(CC(=O)O)CC2)C(N)=O)NC(=O)[C@H](CC(=O)O)NC(=O)[C@H](Cc2cnc[nH]2)NC(=O)[C@H](Cc2c[nH]c3ccccc23)NC(=O)[C@H](CCC(=O)O)NC(=O)[C@H](CC(N)=O)NC1=O [compound 279, Ac-W-T-I-C(3)-N-Glu-W-H-D-C(3)-W-P-[D-Lys(DOTA)]-NH2] (Ac-WTICNEWHDCWP[dK](DOTA)-NH2; disulfide 4-10)
